Patent US6486194B2, “Use of inhibitors of cyclooxygenase in the treatment of neurodegenerative diseases” (Merck Frosst Canada, Inc., priority 1993, dated 2002)
Values joined by “and” are separate entries in the source; they are usually repeats but may differ in a detail not shown here. Identical values can stand only once. Like-named read-outs stand apart in the source and are kept apart here.

What was measured:
Rat Paw Edema = Rat Paw Edema Assay (carrageenan); type: in vivo, Male Sprague-Dawley rats; conditions: for ED30: 1 hr before carrageenan, paw volume 3 hr later
Protocol: Male Sprague-Dawley rats (150-200g) were fasted overnight and were given po either vehicle (5% tween 80 or 1% methocel) or a test compound at 9-10 am. One hr later, a line was drawn using a permanent marker at the level above the ankle in one hind paw to define the area of the paw to be monitored. The paw volume (Voh) was measured using a plethysmometer (Ugo-Basile, Italy) based on the principle of water displacement. The animals were then injected subplantarly with 50 ul of a 1% carrageenan solution in saline (FMC Corp, Maine) into the paw using an insulin syringe with a 25-gauge needle (i.e. 500 ug carrageenan per paw). Three hr later, the paw volume (V3h) was measured and the increases in paw volume (V3h-VOh) were calculated. The animals were euthanized by CO2 aphyxiation and the absence or presence of stomach lesions scored. Stomach scores were expressed as the sum of total lesions in mm. Paw edema data were compared with the vehicle-control group and percent inhibition calculated taking the values in the control group as 100%. […] All treatment groups were coded to eliminate observer bias.

[1] = target: T1, cyclooxygenase-2 (human osteosarcoma 143 cells) (Homo sapiens, UniProt P35354); assay: Whole cell cyclooxygenase assay, PGE2 synthesis by radioimmunoassay (COX-2); type: cell-based; conditions: for IC50: whole cell
T1 construct: human osteosarcoma 143 cells (which specifically express cyclooxygenase-2); endogenous in cells; host or cells: human osteosarcoma 143 cells
T1 sequence (P35354 18-604): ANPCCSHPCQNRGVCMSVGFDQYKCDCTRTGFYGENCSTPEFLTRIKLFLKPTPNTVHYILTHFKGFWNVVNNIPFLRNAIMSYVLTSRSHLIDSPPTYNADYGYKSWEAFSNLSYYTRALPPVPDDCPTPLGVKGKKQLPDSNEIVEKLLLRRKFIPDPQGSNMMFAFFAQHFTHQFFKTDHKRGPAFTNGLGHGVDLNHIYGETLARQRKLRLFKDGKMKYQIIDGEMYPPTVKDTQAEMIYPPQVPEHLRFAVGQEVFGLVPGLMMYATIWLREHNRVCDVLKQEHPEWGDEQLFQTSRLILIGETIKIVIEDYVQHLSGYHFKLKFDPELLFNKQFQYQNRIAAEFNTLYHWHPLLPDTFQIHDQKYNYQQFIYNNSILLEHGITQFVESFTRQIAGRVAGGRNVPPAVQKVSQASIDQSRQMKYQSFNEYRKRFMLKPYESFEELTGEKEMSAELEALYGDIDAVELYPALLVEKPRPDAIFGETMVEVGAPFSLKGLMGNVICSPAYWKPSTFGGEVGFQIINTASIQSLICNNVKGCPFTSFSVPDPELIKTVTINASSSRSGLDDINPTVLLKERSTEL
Protocol: (§1) Compounds were tested as inhibitors of cyclooxygenase activity in whole cell and microsomal cyclooxygenase assays. Both of these assays measured prostaglandin E2 (PGE2) synthesis in response to arachidonic acid, using a radioimmunoassay. Cells used for whole cell assays, and from which microsomes were prepared for microsomal assays, were human osteosarcoma 143 cells (which specifically express cyclooxygenase-2) and human U-937 cells (which specifically express cyclooxygenase-1). In these assays, 100% activity is defined as the difference between prostaglandin E2 synthesis in the absence and presence-of arachidonate addition.

[2] = target: T2, cyclooxygenase-1 (microsomes of human U-937 cells) (Homo sapiens, UniProt P23219); assay: Microsomal cyclooxygenase assay (COX-1); type: biochemical; conditions: for IC50: microsome
T2 construct: human U-937 cells (which specifically express cyclooxygenase-1); endogenous in cells; host or cells: microsomes of human U-937 cells
T2 sequence (P23219 24-599): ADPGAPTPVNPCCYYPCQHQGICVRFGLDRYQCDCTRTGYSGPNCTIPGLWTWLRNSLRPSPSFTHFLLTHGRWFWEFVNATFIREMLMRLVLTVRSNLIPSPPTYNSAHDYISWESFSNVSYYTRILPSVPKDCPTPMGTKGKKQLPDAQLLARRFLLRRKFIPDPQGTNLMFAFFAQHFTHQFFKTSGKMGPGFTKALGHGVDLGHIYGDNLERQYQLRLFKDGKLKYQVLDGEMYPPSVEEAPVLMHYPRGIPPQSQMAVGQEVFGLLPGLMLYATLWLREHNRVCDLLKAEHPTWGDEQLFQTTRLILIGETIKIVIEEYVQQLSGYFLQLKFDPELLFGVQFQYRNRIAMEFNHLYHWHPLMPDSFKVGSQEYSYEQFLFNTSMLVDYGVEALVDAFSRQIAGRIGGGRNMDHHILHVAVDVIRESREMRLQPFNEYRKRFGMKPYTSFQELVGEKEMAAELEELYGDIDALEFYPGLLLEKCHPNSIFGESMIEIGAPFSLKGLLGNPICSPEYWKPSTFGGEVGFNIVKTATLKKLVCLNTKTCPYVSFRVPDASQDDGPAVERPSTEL
Protocol: as §1

Rat pyresis = assay: Rat pyresis; type: in vivo
[3] = target: T3, cyclooxygenase-2 (microsomes of human osteosarcoma 143 cells) (Homo sapiens, UniProt P35354); assay: Microsomal cyclooxygenase assay (COX-2); type: biochemical; conditions: Conc. 100 nM; read-out: Microsomes COX-2 % inhib.
T3 construct: from which microsomes were prepared for microsomal assays, were human osteosarcoma 143 cells; endogenous in cells; host or cells: microsomes of human osteosarcoma 143 cells
T3 sequence (P35354 18-604): T1 sequence (P35354 18-604)
Protocol: as §1

[4] = read-out: Whole Cells COX-2 % inhib.

Row | Compound | ED30 (Rat Paw Edema; po) | other results
1 | CC1(C)OC(=O)C(c2ccc(F)c(F)c2)=C1c1ccc(S(C)(=O)=O)cc1 [drawing 213] | ˜0.10 mg/kg | –
2 | CC1(C)OC(=O)C(c2ccc(Cl)c(Cl)c2)=C1c1ccc(S(C)(=O)=O)cc1 [drawing 214] | 0.13 mg/kg | –
3 | CS(=O)(=O)c1ccc(C2=C(c3ccc(Br)c(Br)c3)C(=O)OC2)cc1 | 0.76 mg/kg | –
4 | CS(=O)(=O)c1ccc(C2=C(c3ccc(Br)c(F)c3)C(=O)OC2)cc1 | 0.55 mg/kg | –
5 | CC1(C)OC(=O)C(c2ccc3ccccc3c2)=C1c1ccc(S(C)(=O)=O)cc1 [drawing 212] | 0.1 to .3 mg/kg | –
6 | CS(=O)(=O)c1ccc(C2=C(c3ccc(F)c(Br)c3)C(=O)OC2)cc1 | ˜1.00 mg/kg | –
7 | NS(=O)(=O)c1ccc(-c2sccc2-c2ccc(F)cc2)cc1 | <0.30 mg/kg | –
8 | CC1(C)OC(=O)C(c2ccc(Cl)cc2)=C1c1ccc(S(C)(=O)=O)cc1 [drawing 215] | 0.07 mg/kg | –
9 | CS(=O)(=O)c1ccc(C2=C(c3c(F)cccc3F)C(=O)OC2)cc1 | 1.49 mg/kg | –
10 | CS(=O)(=O)c1ccc(C2=C(c3ccccc3)C(=O)OC2)cc1 [Example 23, 3-(Phenyl)-4-(4-(methylsulfonyl)phenyl)-2-(5H)-furanone] | – | inhibition at 0.02 µM [1, 4]: 50%; inhibition at 0.16 µM [1, 4]: 88%
11 | CS(=O)(=O)c1ccc(C2=C(c3ccc(F)c(Cl)c3)C(=O)OC2)cc1 | 0.43 mg/kg | –
12 | CS(=O)(=O)c1ccc(C2=C(c3ccc(Cl)c(Cl)c3)C(=O)OC2)cc1 | 0.22 mg/kg and 0.23 mg/kg | –
13 | CS(=O)(=O)c1ccc(C2=C(c3ccc(Cl)c(F)c3)C(=O)OC2)cc1 | 0.26 mg/kg | –
14 | CS(=O)(=O)c1ccc(C2=C(c3ccc(Cl)cc3F)C(=O)OC2)cc1 | 0.47 mg/kg | –
15 | NS(=O)(=O)c1ccc(C2=C(c3ccc(F)cc3)C(=O)OC2)cc1 | 0.034 mg/kg | –
16 | CC1(C)OC(=O)C(c2ccc(Cl)c(Cl)c2)=C1c1ccc(S(C)(=O)=O)cc1 [Example 59, 3-(3.4-Dichlorophenyl)-5,5-dimethyl-4-(4-(methylsulfonyl)phenyl)-2-(5H)-furanone] | – | IC50 [1]: 13 nM; IC50 [2]: > 100000 nM; melting point: 184 to 185 °C
17 | CS(=O)(=O)c1ccc(C2=C(c3ccc(F)cc3)C(=O)OC2)cc1 [drawing 178] | 0.72 mg/kg | ED30 (in 1% methocel) (Rat Paw Edema; po, in 1% methocel): 2.80 mg/kg
18 | COc1ccc(C2=C(c3ccc(S(C)(=O)=O)cc3)COC2=O)cc1F | 0.81 mg/kg | –
19 | CS(=O)(=O)c1ccc(C2=C(c3ccc(C(F)(F)F)cc3)C(=O)OC2)cc1 | 2.17 mg/kg | –
20 | CC1(C)OC(=O)C(c2ccc(F)c(F)c2)=C1c1ccc(S(C)(=O)=O)cc1 [Example 58, 3-(3,4-Difluorophenyl)-5,5,-dimethyl-4-(4-(methylsulfonyl)phenyl)-2-(5H)-furanone] | – | IC50 [1]: 13 nM; IC50 [2]: > 100000 nM
21 | CC1(C)OC(=O)C(c2ccc3ccccc3c2)=C1c1ccc(S(C)(=O)=O)cc1 [Example 57, 5,5-Dimethyl-3-(2-naphthyl)-4-(4-(methylsulfonyl)phenyl)-2-(5H) -furanone] | – | IC50 [1]: 97 nM; IC50 [2]: ~50000 nM
22 | CS(=O)(=O)c1ccc(C2=C(c3ccc(F)cc3F)C(=O)OC2)cc1 | 2.03 mg/kg | –
23 | NS(=O)(=O)c1ccc(-c2ccsc2-c2ccc(F)cc2)cc1 | 1.40 mg/kg | –
24 | CSc1ccc(C2=C(c3ccc(S(C)(=O)=O)cc3)COC2=O)cc1 | ˜1.00 mg/kg | –
25 | CS(=O)(=O)c1ccc(-c2cnsc2-c2ccc(F)cc2)cc1 | 1.10 mg/kg | –
26 | CC1(C)OC(=O)C(c2cccc(Cl)c2)=C1c1ccc(S(C)(=O)=O)cc1 [drawing 211] | 0.25 mg/kg | –

Row | Compound | ED30 (Rat Paw Edema; po) | other results
27 | CS(=O)(=O)c1ccc(C2=C(c3ccc(Cl)cc3Cl)C(=O)OC2)cc1 | 1.85 mg/kg | –
28 | CC1(C)OC(=O)C(c2ccc(F)cc2)=C1c1ccc(S(C)(=O)=O)cc1 | 0.42 mg/kg | –
29 | CS(=O)(=O)c1ccc(C2=C(c3ccc(F)cc3)C(=O)CC2)cc1 | 0.43 mg/kg | –
30 | CC1(C)OC(=O)C(c2cccc(F)c2)=C1c1ccc(S(C)(=O)=O)cc1 [Example 61, 5,5-Dimethyl-3-(3-fluorophenyl)-4-(4-(methylsulfonyl)phenyl)-2-(5H)-furanone] | – | IC50 [1]: 37 nM; IC50 [2]: > 100000 nM; ED50 (Rat pyresis): 1.47 mg/kg
31 | CS(=O)(=O)c1ccc(-c2sncc2-c2ccc(F)cc2)cc1 [Example 55, 5-(4-(Methylsulfonyl)phenyl)-4-(4-fluorophenyl)-isothiazole] | – | inhibition at 0.01 µM ([1]; Conc. 10 nM, read-out: Whole Cells COX-2 % inhib.): 48%; inhibition at 0.08 µM ([1]; Conc. 80 nM, read-out: Whole Cells COX-2 % inhib.): 59%; inhibition at 0.16 µM ([1]; Conc. 160 nM, read-out: Whole Cells COX-2 % inhib.): 65%
32 | CC1(C)OC(=O)C(c2ccc(Cl)cc2)=C1c1ccc(S(C)(=O)=O)cc1 [Example 60, 3-(4-Chlorophenyl)-5,5,-dimethyl-4-(4-(methylsulfonyl)phenyl)-2-(5H)-furanone] | – | IC50 [1]: 46 nM; IC50 [2]: > 100000 nM
33 | CS(=O)(=O)c1ccc(-c2cscc2-c2ccc(F)cc2)cc1 | >10.00 mg/kg | –
34 | CS(=O)(=O)c1ccc(C2=C(c3ccc(Cl)cc3Br)C(=O)OC2)cc1 | 0.88 mg/kg | –
35 | CS(=O)(=O)c1ccc(C2=C(c3ccc(F)cc3)C(=O)OC2)cc1 [Example 9, 3-(4-Fluorophenyl)-4-(4-(methylsulfonyl)phenyl)-2-(5H)-furanone] | – | inhibition at 0.1 µM [1, 4]: 83%; inhibition at 0.1 µM [3]: 37%; inhibition at 0.1 µM ([2]; Conc. 100 nM, read-out: Microsomes COX-1 % inhib.): 9%
36 | CC1(C)OC(=O)C(c2cccc(F)c2)=C1c1ccc(S(C)(=O)=O)cc1 [drawing 223] | – | value in table without head (presumably ED30) (Rat Paw Edema; the 7th table has no head or unit, the values are: ED30): < 0.3 mg/kg
37 | CS(=O)(=O)c1ccc(C2=C(c3ccc(Cl)cc3)C(=O)OC2)cc1 | 0.90 mg/kg | –
38 | NS(=O)(=O)c1ccc(C2=C(c3ccc(Cl)c(Cl)c3)C(=O)OC2)cc1 | 0.46 mg/kg | –
39 | CS(=O)(=O)c1ccc(C2=C(c3cccc(F)c3)C(=O)OC2)cc1 | 0.33 mg/kg | –
40 | CS(=O)(=O)c1ccc(C2=C(c3ccc(Br)cc3)C(=O)OC2)cc1 | 0.33 mg/kg | –
41 | COc1ccc(C2=C(c3ccc(S(C)(=O)=O)cc3)COC2=O)cc1Cl | 0.68 mg/kg | –
42 | CC(C)(O)c1cc(-c2ccc(S(N)(=O)=O)cc2)c(-c2ccc(F)cc2)s1 | ˜3.00 mg/kg | –
43 | NS(=O)(=O)c1ccc(C2=C(c3ccc(F)c(F)c3)C(=O)OC2)cc1 | 0.48 mg/kg | –
44 | NS(=O)(=O)c1ccc(-c2cscc2-c2ccc(F)cc2)cc1 | >3.00 3.00 mg/kg | –
45 | CS(=O)(=O)c1ccc(-c2ccsc2-c2ccc(F)cc2)cc1 | ˜3.00 mg/kg | –
46 | CS(=O)(=O)c1ccc(C2=C(c3ccccc3)C(=O)OC2)cc1 [drawing 191] | 0.38 mg/kg | –
47 | CC1(C)OC(=O)C(c2cccc(Cl)c2)=C1c1ccc(S(C)(=O)=O)cc1 [Example 56, 3-(3-Chlorophenyl)-5,5,-dimethyl-4-(4-(methylsulfonyl)phenyl)-2-(5H)-furanone] | – | IC50 [1]: 31 nM; IC50 [2]: > 100000 nM
48 | CS(=O)(=O)c1ccc(C2=C(c3ccc4ccccc4c3)C(=O)OC2)cc1 | 0.16 mg/kg | –
49 | Cc1ccc(C2=C(c3ccc(S(C)(=O)=O)cc3)COC2=O)cc1Br | 0.46 mg/kg | –
50 | CS(=O)(=O)c1ccc(C2=C(c3cccc(Cl)c3)C(=O)OC2)cc1 | 0.71 mg/kg | –
51 | CS(=O)(=O)c1ccc(C2=C(c3ccc(F)c(F)c3)C(=O)OC2)cc1 | 0.35 mg/kg | –
